{"source": "patent US8119563B2", "about": "“N-substituted azacycles” (FMC Corporation, priority 2003, dated 2012)", "tested_on": "tobacco budworm (Heliothis virescens [Fabricius])", "experiment": "surface-treated diet test, insecticidal activity against tobacco budworm", "type": "in vivo", "set-up": "mortality: concentration or dose not given beside the values", "settings": "0.25 millimoles of candidate insecticide on the surface of the diet, second instar larvae, five-day exposure", "in_short": "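Wheat germ artificial diet surface-treated with compound from 50 mM DMSO stock diluted 1:7 in 1:1 water/acetone (0.25 millimolar on diet), or lower-rate dilutions; DMSO-only controls. One second-instar larva per well, 25° C, 60% RH, 14 h light, five days; percent weight inhibition versus untreated and percent mortality scored.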", "key": {"[1]": {"settings": "compared to total number of insects infested"}, "[2]": {"settings": "inhibition of insect weight relative to untreated controls"}}, "data": [{"smiles": "COCCOc1ccc(C[N+]2([O-])CCC(O)(C(c3ccc(OC(F)(F)F)cc3)c3ccc(OC(F)(F)F)cc3)CC2)cc1", "note": "(stereo not shown) [Compound 385, 4-{bis[4-(trifluoromethoxy)phenyl]methyl}-4-hydroxy-1-{[4-(2-methoxyethoxy)phenyl]methyl}piperidin-1-oxide]", "values": [{"measurement": "mortality", "setting": "Heliothis virescens, 120 h, compared to total number of insects infested, read-out: Percent Mortality", "result": 100, "unit": "%"}, {"measurement": "pest or weed control at 0.25 mmol/well", "setting": "Heliothis virescens, 120 h, inhibition of insect weight relative to untreated controls, read-out: Percent Growth Inhibition", "result": 100, "unit": "%"}]}, {"smiles": "OC(c1ccc(Cl)cc1)c1ccc(CN2CCC(O)(C(c3ccc(OC(F)(F)F)cc3)c3ccc(OC(F)(F)F)cc3)CC2)cc1", "note": "(racemic) [Compound 278]", "values": [{"measurement": "Percent Mortality", "setting": "[1]", "result": 100, "unit": "%"}, {"measurement": "Percent Growth Inhibition", "setting": "[2]", "result": 100, "unit": "%"}]}, {"smiles": "[O-][N+]1(Cc2ccc(Oc3ccccn3)cc2)CCC(O)(C(c2ccc(Br)cc2)c2ccc(OC(F)(F)F)cc2)CC1", "note": "(stereo not shown) [Compound 339]", "values": [{"measurement": "Percent Mortality", "setting": "[1]", "result": 100, "unit": "%"}, {"measurement": "Percent Growth Inhibition", "setting": "[2]", "result": 100, "unit": "%"}]}, {"smiles": "[O-][N+]1(Cc2ccc(Oc3ccccn3)cc2)CCC(O)(C(c2ccc3c(c2)OC(F)(F)O3)c2ccc3c(c2)OC(F)(F)O3)CC1", "note": "(stereo not shown) [Compound 464]", "values": [{"measurement": "Percent Mortality", "setting": "[1]", "result": 100, "unit": "%"}, {"measurement": "Percent Growth Inhibition", "setting": "[2]", "result": 100, "unit": "%"}]}, {"smiles": "O=C(O)CC(O)(CC(=O)O)C(=O)[O-].OC1(C(c2ccc(OC(F)(F)F)cc2)c2ccc(OC(F)(F)F)cc2)CC[N+](O)(Cc2ccc(Oc3ccccn3)cc2)CC1", "note": "(stereo not shown) [Compound 504]", "values": [{"measurement": "Percent Mortality", "setting": "[1]", "result": 100, "unit": "%"}, {"measurement": "Percent Growth Inhibition", "setting": "[2]", "result": 100, "unit": "%"}]}, {"smiles": "Cc1ccc(C(c2ccc(OC(F)(F)F)cc2)C2(O)CCN(Cc3ccc(Oc4ccccn4)cc3)CC2)cc1", "note": "(stereo not shown) [Compound 262]", "values": [{"measurement": "Percent Mortality", "setting": "[1]", "result": 100, "unit": "%"}, {"measurement": "Percent Growth Inhibition", "setting": "[2]", "result": 100, "unit": "%"}]}, {"smiles": "[O-][N+]1(Cc2ccc(Oc3ncccn3)cc2)CCC(O)(C(O)(c2ccc(OC(F)(F)F)cc2)c2ccc(OC(F)(F)F)cc2)CC1", "note": "(stereo not shown) [Compound 422]", "values": [{"measurement": "Percent Mortality", "setting": "[1]", "result": 100, "unit": "%"}, {"measurement": "Percent Growth Inhibition", "setting": "[2]", "result": 100, "unit": "%"}]}, {"smiles": "CC(C)OC(=O)Nc1ccc(C[N+]2(Cc3ccc(NC(=O)OC(C)C)cc3)CCC(O)(C(O)(c3ccc(OC(F)(F)F)cc3)c3ccc(OC(F)(F)F)cc3)CC2)cc1.[Cl-]", "note": "[Compound 521]", "values": [{"measurement": "Percent Mortality", "setting": "[1]", "result": 50, "unit": "%"}, {"measurement": "Percent Growth Inhibition", "setting": "[2]", "result": 100, "unit": "%"}]}, {"smiles": "OC1(C(c2ccc(C(F)(F)F)cc2)c2ccc(C(F)(F)F)cc2)CCN(Cc2ccc(C3OCCO3)cc2)CC1", "note": "[Compound 264]", "values": [{"measurement": "Percent Mortality", "setting": "[1]", "result": 33, "unit": "%"}, {"measurement": "Percent Growth Inhibition", "setting": "[2]", "result": 100, "unit": "%"}]}, {"smiles": "CC(C)OC(=O)c1ccc(C[N+]2([O-])CCC(O)(C(c3ccc(C(F)(F)F)cc3)c3ccc(C(F)(F)F)cc3)CC2)cc1", "note": "(stereo not shown) [Compound 407]", "values": [{"measurement": "Percent Mortality", "setting": "[1]", "result": 100, "unit": "%"}, {"measurement": "Percent Growth Inhibition", "setting": "[2]", "result": 100, "unit": "%"}]}, {"smiles": "[O-][N+]1(Cc2ccc(Oc3ccccn3)cc2)CCC(O)(C(F)(c2ccc(OC(F)(F)F)cc2)c2ccc(OC(F)(F)F)cc2)CC1", "note": "(stereo not shown) [Compound 430]", "values": [{"measurement": "Percent Mortality", "setting": "[1]", "result": 100, "unit": "%"}, {"measurement": "Percent Growth Inhibition", "setting": "[2]", "result": 100, "unit": "%"}]}, {"smiles": "OC(COc1cccc(Cl)c1)CN1CCC(O)(C(c2ccc(OC(F)(F)F)cc2)c2ccc(OC(F)(F)F)cc2)CC1", "note": "(stereo not shown) [Compound 471]", "values": [{"measurement": "Percent Mortality", "setting": "[1]", "result": 0, "unit": "%"}, {"measurement": "Percent Growth Inhibition", "setting": "[2]", "result": 82, "unit": "%"}]}, {"smiles": "Cc1cc(C(c2ccc(OC(F)(F)F)cc2)C2(O)CCN(Cc3ccc(Oc4ccccn4)cc3)CC2)ccc1Cl", "note": "(stereo not shown) [Compound 435]", "values": [{"measurement": "Percent Mortality", "setting": "[1]", "result": 100, "unit": "%"}, {"measurement": "Percent Growth Inhibition", "setting": "[2]", "result": 100, "unit": "%"}]}, {"smiles": "N#Cc1cccnc1Oc1ccc(C[N+]2([O-])CCC(O)(C(c3ccc(OC(F)(F)F)cc3)c3ccc(OC(F)(F)F)cc3)CC2)cc1", "note": "(stereo not shown) [Compound 359]", "values": [{"measurement": "Percent Mortality", "setting": "[1]", "result": 100, "unit": "%"}, {"measurement": "Percent Growth Inhibition", "setting": "[2]", "result": 100, "unit": "%"}]}, {"smiles": "CC1(C)[C@@H]2CCC1(CS(=O)(=O)[O-])C(=O)C2.OC1(C(c2ccc(OC(F)(F)F)cc2)c2ccc(OC(F)(F)F)cc2)CC[N+](O)(Cc2ccc(Oc3ccccn3)cc2)CC1", "note": "(stereo not shown) [Compound 505]", "values": [{"measurement": "Percent Mortality", "setting": "[1]", "result": 100, "unit": "%"}, {"measurement": "Percent Growth Inhibition", "setting": "[2]", "result": 100, "unit": "%"}]}, {"smiles": "CCON=Cc1ccc(C[N+]2(O)CCC(O)(C(c3ccc(OC(F)(F)F)cc3)c3ccc(OC(F)(F)F)cc3)CC2)cc1.O=C(O)CC(O)(CC(=O)O)C(=O)[O-]", "note": "(stereo not shown) [Compound 494]", "values": [{"measurement": "Percent Mortality", "setting": "[1]", "result": 100, "unit": "%"}, {"measurement": "Percent Growth Inhibition", "setting": "[2]", "result": 100, "unit": "%"}]}, {"smiles": "OC1(C(c2ccc(OC(F)(F)C(F)C(F)(F)F)cc2)c2ccc(OC(F)(F)C(F)C(F)(F)F)cc2)CCN(Cc2ccc(Oc3ncccn3)cc2)CC1", "note": "(stereo not shown) [Compound 306]", "values": [{"measurement": "Percent Mortality", "setting": "[1]", "result": 100, "unit": "%"}, {"measurement": "Percent Growth Inhibition", "setting": "[2]", "result": 100, "unit": "%"}]}]}
